From patent publication US20120264799A1, “INDANE-AMINE DERIVATIVES, THEIR PREPARATION AND USE AS MEDICAMENTS” (LABORATORIOS DEL DR. ESTEVE ,S.A., priority 2009, published 2012) come the findings set out here.

Molecules are shown by their SMILES.

This test addresses T1, Cloned Human Serotonin Receptor, Subtype 7 (h5HT7) (Homo sapiens, UniProt P34969).
T1 construct: purchased PerkinElmer 6120512; host or cells: CHO cells
In words: Radioligand binding assay, [125I]LSD, Flashplate. As to conditions: h5HT7 expressed in CHO cells; radioligand [125I]LSD 0.82 nM; 240 min at room temperature; read-out: 5-HT7 Ki. Here is the method:
Radioligand binding assays were performed using the Cloned Human Serotonin Receptor, Subtype 7 (h5HT7), expressed in CHO cells, coated on Flashplate (Basic FlashPlate Cat.: SMP200) from PerkinElmer (Cat.: 6120512). The protocol assay was essentially the recommended protocol in the Technical Data Sheet by PerkinEmer Life and Analytical Sciences. The Mass membrane protein/well was typically […] and the Receptor/well was about 9-10 fmoles. The Flashplate were let equilibrate at room temperature for one hour before the addition of the components of the assay mixture. The binding buffer was: 50 mM Tris-HCl, pH 7.4, containing 10 mM MgCl2, 0.5 mM EDTA and 0.5% BSA. The radioligand was [^125l]LSD at a final concentration of 0.82 nM. Nonspecific binding was determined with 50 µM of Clozapine. The assay volume was […]. […] The radioactivity were quantified by liquid scintillation spectrophotometry (Wallac 1450 Microbeta Trilux) with a count delay of 4 minutes prior to counting and a counting time of 30 seconds per well. Competition binding data were analyzed by using the LIGAND program (Munson and Rodbard, LIGAND: A versatile, computerized approach for characterization of ligandbinding systems. Anal. Biochem. 107: 220-239, 1980) and assays were performed in triplicate determinations for each point.

T1 sequence (P34969 whole entry): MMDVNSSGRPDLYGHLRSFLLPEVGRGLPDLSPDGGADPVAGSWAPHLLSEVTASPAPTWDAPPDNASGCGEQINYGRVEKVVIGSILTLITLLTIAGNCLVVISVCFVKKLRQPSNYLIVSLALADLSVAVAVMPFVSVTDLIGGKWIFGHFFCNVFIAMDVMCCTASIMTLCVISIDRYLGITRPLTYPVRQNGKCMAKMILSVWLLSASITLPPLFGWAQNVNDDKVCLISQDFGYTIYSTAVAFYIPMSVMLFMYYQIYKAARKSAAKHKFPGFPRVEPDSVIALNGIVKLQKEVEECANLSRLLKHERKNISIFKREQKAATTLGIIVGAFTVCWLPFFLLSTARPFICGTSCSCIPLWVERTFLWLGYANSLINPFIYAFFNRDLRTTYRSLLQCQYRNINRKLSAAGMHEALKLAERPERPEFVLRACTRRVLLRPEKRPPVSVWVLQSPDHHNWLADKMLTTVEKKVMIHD

Turning to `Cc1nn(C)c(-c2ccc3c(c2)C(N(C)C)CC3)c1C` (centres unmarked) [Example 3, N,N-dimethyl-6-(1,3,4-trimethyl-1H-pyrazol-5-yl)-2,3-dihydro-1H-inden-1-amine], the Ki worked out at 425 nM. With `Cc1nn(C(C)C)c(-c2ccc3c(c2)C(N(C)C)CC3)c1C` (centres unmarked) [Example 9, 6-(1-lsopropyl-3,4-dimethyl-1H-pyrazol-5-yl)-N,N-dimethyl-2,3-dihydro-1H-inden-1-amine], the Ki was found to be 360 nM.
